According to the supplement of paper PMC4862054:
Where “and” joins values, the source holds several entries; their conditions need not be identical. Equal values may be shown once.

Each compound was assayed on HDQ-P1 (assay: normalised viability (% of control), CellTiter-Blue; higher = more viable cells (about 100 = DMSO control)). Settings: 30 nM; incubation time: 72 h.
Summary of the method: (§1)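 After 72 h on compound-loaded 384-well plates, breast cancer cell lines received 2.5 µl CellTiter-Blue reagent for 2 h at 37 °C. Fluorescence at 560/590 nm was scaled per plate so that vehicle was 100 and a positive kill control was 0. The value stands for normalised viability at a single listed concentration of the series.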
For O=P(O)(NCCCl)NCCCl [Ifosfamide mustard], the normalised viability was 117%.

Same assay, conditions: 100 nM; incubation time: 72 h
With CS(=O)(=O)CCNCc1ccc(-c2ccc3ncnc(Nc4ccc(OCc5cccc(F)c5)c(Cl)c4)c3c2)o1 [Lapatinib] the normalised viability was 87.1% and 110%. For COC1=C2C[C@@H](C)C[C@H](OC)[C@H](O)[C@@H](C)/C=C(\C)[C@H](OC(N)=O)[C@@H](OC)/C=C\C=C(/C)C(=O)NC(=CC1=O)C2=O [Geldanamycin], the normalised viability was 44.8%. Compound c1ccc(C2CN3CCSC3=N2)cc1 (stereo not given) [Tetramisole] has a normalised viability of 109%. COc1cc(Nc2ncc(F)c(Nc3ccc4c(n3)NC(=O)C(C)(C)O4)n2)cc(OC)c1OC [R406] was tested, and the normalised viability was 99.5%. With O=P(O)(NCCCl)NCCCl [Ifosfamide mustard] the normalised viability was 107%.

What follows are compounds tested on HCC1599 in the same assay as above. Settings: 1 nM; incubation time: 72 h.
Summary of the method: as §1
Compound CC(C)(C)c1cc(NC(=O)Nc2ccc(-c3cn4c(n3)sc3cc(OCCN5CCOCC5)ccc34)cc2)no1 [Quizartinib] has a normalised viability of 119%.

Same assay, conditions: 10 nM; incubation time: 72 h
In the case of CS(=O)(=O)CCNCc1ccc(-c2ccc3ncnc(Nc4ccc(OCc5cccc(F)c5)c(Cl)c4)c3c2)o1 [Lapatinib], the normalised viability is reported as 108% and 96.7%. In the case of COC1=C2C[C@@H](C)C[C@H](OC)[C@H](O)[C@@H](C)/C=C(\C)[C@H](OC(N)=O)[C@@H](OC)/C=C\C=C(/C)C(=O)NC(=CC1=O)C2=O [Geldanamycin], the normalised viability is reported as 113%. In the case of c1ccc(C2CN3CCSC3=N2)cc1 (stereo not given) [Tetramisole], the normalised viability is reported as 102%. COc1cc(Nc2ncc(F)c(Nc3ccc4c(n3)NC(=O)C(C)(C)O4)n2)cc(OC)c1OC [R406] gave a normalised viability of 105%. In the case of O=P(O)(NCCCl)NCCCl [Ifosfamide mustard], the normalised viability is reported as 96.2%.

Same assay, conditions: 100 nM; incubation time: 72 h
In the case of CC(C)(C)c1cc(NC(=O)Nc2ccc(-c3cn4c(n3)sc3cc(OCCN5CCOCC5)ccc34)cc2)no1 [Quizartinib], the normalised viability is reported as 105%.

Same assay, conditions: 1000 nM; incubation time: 72 h
CC(C)(C)c1cc(NC(=O)Nc2ccc(-c3cn4c(n3)sc3cc(OCCN5CCOCC5)ccc34)cc2)no1 [Quizartinib] gave a normalised viability of 63.6%. In the case of COC1=C2C[C@@H](C)C[C@H](OC)[C@H](O)[C@@H](C)/C=C(\C)[C@H](OC(N)=O)[C@@H](OC)/C=C\C=C(/C)C(=O)NC(=CC1=O)C2=O [Geldanamycin], the normalised viability is reported as 31.3%. c1ccc(C2CN3CCSC3=N2)cc1 (stereo not given) [Tetramisole] was tested, and the normalised viability was 91.2%. Compound COc1cc(Nc2ncc(F)c(Nc3ccc4c(n3)NC(=O)C(C)(C)O4)n2)cc(OC)c1OC [R406] has a normalised viability of 112%. With O=P(O)(NCCCl)NCCCl [Ifosfamide mustard] the normalised viability was 106%.

Same assay, conditions: 10000 nM; incubation time: 72 h
With CS(=O)(=O)CCNCc1ccc(-c2ccc3ncnc(Nc4ccc(OCc5cccc(F)c5)c(Cl)c4)c3c2)o1 [Lapatinib] the normalised viability was 63.5% and 83.8%. Work on COC1=C2C[C@@H](C)C[C@H](OC)[C@H](O)[C@@H](C)/C=C(\C)[C@H](OC(N)=O)[C@@H](OC)/C=C\C=C(/C)C(=O)NC(=CC1=O)C2=O [Geldanamycin] yielded a normalised viability of 20.1%. c1ccc(C2CN3CCSC3=N2)cc1 (stereo not given) [Tetramisole] showed a normalised viability of 107%. Work on COc1cc(Nc2ncc(F)c(Nc3ccc4c(n3)NC(=O)C(C)(C)O4)n2)cc(OC)c1OC [R406] yielded a normalised viability of 104%. With O=P(O)(NCCCl)NCCCl [Ifosfamide mustard] the normalised viability was 95.6%.

Each compound was assayed on BT-549 in the same assay as above. Settings: 1 nM; incubation time: 72 h.
Summary of the method: as §1
For CC(C)(C)c1cc(NC(=O)Nc2ccc(-c3cn4c(n3)sc3cc(OCCN5CCOCC5)ccc34)cc2)no1 [Quizartinib], the normalised viability was 89.4%.

Same assay, conditions: 10 nM; incubation time: 72 h
CS(=O)(=O)CCNCc1ccc(-c2ccc3ncnc(Nc4ccc(OCc5cccc(F)c5)c(Cl)c4)c3c2)o1 [Lapatinib] was tested, and the normalised viability was 74.6% and 99.6%. In the case of COC1=C2C[C@@H](C)C[C@H](OC)[C@H](O)[C@@H](C)/C=C(\C)[C@H](OC(N)=O)[C@@H](OC)/C=C\C=C(/C)C(=O)NC(=CC1=O)C2=O [Geldanamycin], the normalised viability is reported as 89.7%. Work on c1ccc(C2CN3CCSC3=N2)cc1 (stereo not given) [Tetramisole] yielded a normalised viability of 105%. For COc1cc(Nc2ncc(F)c(Nc3ccc4c(n3)NC(=O)C(C)(C)O4)n2)cc(OC)c1OC [R406], the normalised viability was 89.7%. In the case of O=P(O)(NCCCl)NCCCl [Ifosfamide mustard], the normalised viability is reported as 87.2%.

Same assay, conditions: 100 nM; incubation time: 72 h
For CC(C)(C)c1cc(NC(=O)Nc2ccc(-c3cn4c(n3)sc3cc(OCCN5CCOCC5)ccc34)cc2)no1 [Quizartinib], the normalised viability was 95.1%.

Same assay, conditions: 1000 nM; incubation time: 72 h
For CC(C)(C)c1cc(NC(=O)Nc2ccc(-c3cn4c(n3)sc3cc(OCCN5CCOCC5)ccc34)cc2)no1 [Quizartinib], the normalised viability was 44%. In the case of CS(=O)(=O)CCNCc1ccc(-c2ccc3ncnc(Nc4ccc(OCc5cccc(F)c5)c(Cl)c4)c3c2)o1 [Lapatinib], the normalised viability is reported as 86.5% and 103%. Compound COC1=C2C[C@@H](C)C[C@H](OC)[C@H](O)[C@@H](C)/C=C(\C)[C@H](OC(N)=O)[C@@H](OC)/C=C\C=C(/C)C(=O)NC(=CC1=O)C2=O [Geldanamycin] has a normalised viability of 18%. Work on c1ccc(C2CN3CCSC3=N2)cc1 (stereo not given) [Tetramisole] yielded a normalised viability of 85.6%. Work on COc1cc(Nc2ncc(F)c(Nc3ccc4c(n3)NC(=O)C(C)(C)O4)n2)cc(OC)c1OC [R406] yielded a normalised viability of 77.3%. Compound O=P(O)(NCCCl)NCCCl [Ifosfamide mustard] has a normalised viability of 91%.

Same assay, conditions: 10000 nM; incubation time: 72 h
CS(=O)(=O)CCNCc1ccc(-c2ccc3ncnc(Nc4ccc(OCc5cccc(F)c5)c(Cl)c4)c3c2)o1 [Lapatinib] was tested, and the normalised viability was 14.1% and 20.7%. COC1=C2C[C@@H](C)C[C@H](OC)[C@H](O)[C@@H](C)/C=C(\C)[C@H](OC(N)=O)[C@@H](OC)/C=C\C=C(/C)C(=O)NC(=CC1=O)C2=O [Geldanamycin] was tested, and the normalised viability was 15.9%. In the case of c1ccc(C2CN3CCSC3=N2)cc1 (stereo not given) [Tetramisole], the normalised viability is reported as 89.1%. COc1cc(Nc2ncc(F)c(Nc3ccc4c(n3)NC(=O)C(C)(C)O4)n2)cc(OC)c1OC [R406] showed a normalised viability of 53%. In the case of O=P(O)(NCCCl)NCCCl [Ifosfamide mustard], the normalised viability is reported as 107%.

What follows are compounds tested on CAL-51 in the same assay as above. Settings: 0.3 nM; incubation time: 72 h.
Summary of the method: as §1
In the case of CC(C)(C)c1cc(NC(=O)Nc2ccc(-c3cn4c(n3)sc3cc(OCCN5CCOCC5)ccc34)cc2)no1 [Quizartinib], the normalised viability is reported as 115%.

Same assay, conditions: 3 nM; incubation time: 72 h
Work on CC(C)(C)c1cc(NC(=O)Nc2ccc(-c3cn4c(n3)sc3cc(OCCN5CCOCC5)ccc34)cc2)no1 [Quizartinib] yielded a normalised viability of 106%. CS(=O)(=O)CCNCc1ccc(-c2ccc3ncnc(Nc4ccc(OCc5cccc(F)c5)c(Cl)c4)c3c2)o1 [Lapatinib] was tested, and the normalised viability was 122% and 101%. COC1=C2C[C@@H](C)C[C@H](OC)[C@H](O)[C@@H](C)/C=C(\C)[C@H](OC(N)=O)[C@@H](OC)/C=C\C=C(/C)C(=O)NC(=CC1=O)C2=O [Geldanamycin] gave a normalised viability of 109%.
